Experiment [1] concerns TNF-α (NF-κB pathway, THP-1 cells). Nature of the experiment: TNF-α Assay (IC50). The format is cell-based, human. As to conditions: Homo sapiens, 600 ng/mL LPS, 3 hours. Summed up: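 THP-1 cells differentiated to macrophages with 25 ng/mL IFN for 24 h, plated 40,000/well in serum-free medium, preincubated with compounds 30 min at 37 °C, then stimulated with 600 ng/mL LPS for 3 h. Supernatant TNF-α measured by ELISA; IC50 from four-parameter logistic fit, 100% inhibition defined by TPCA-1.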

For experiment [2], the system named is NLRP3 inflammasome (IL-1β production in THP-1 cells). In words: IL-1β TR-FRET Assay (percentage of inhibition at 300 nM, 6 μM or 10 μM). In kind it is cell-based, human. As to conditions: Homo sapiens, LPS priming, ATP activation; for inhibition at 0.3 µM: THP-1, 300 nM, read-out: IL-1β inhibitory rate at 300 nM (%); for inhibition at 10 µM: THP-1, 10 μM, read-out: IL-1β inhibitory rate at 10 μM (%). Summed up: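 THP-1 cells were differentiated with 25 ng/mL IFN-γ for 24 h, primed with 50 ng/mL LPS in serum-free medium for 24 h, then given compound for 30 min before 20 mM ATP for 2 h. Supernatant IL-1β was measured by HTRF after 16-24 h at room temperature. Inhibition was normalized between DMSO (high) and 3 μM MCC-950 (low).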

Where only a bound is given, the exact number is not on record here.

In turn, `CCOc1nc2nn(-c3c(F)cc(C4CC4)cc3C(F)(F)F)cc2c(=O)[nH]1` [Example 117, 2-[4-cyclopropyl-2-fluoro-6-(trifluoromethyl)phenyl]-6-ethoxy-2,5-dihydro-4H-pyrazolo[3,4-d]pyrimidin-4-one] came in with an IC50 in experiment [1] greater than 30 µM. For the same molecule, the inhibition at 0.3 µM in experiment [2] worked out at 100%.

Consider `CCOc1nc2nn(-c3c(C)cc(C)cc3Br)cc2c(=O)[nH]1` [Example 118, 2-(2-bromo-4,6-dimethylphenyl)-6-ethoxy-2,5-dihydro-4H-pyrazolo[3,4-d]pyrimidin-4-one], for which the IC50 in experiment [1] was greater than 30 µM. Moreover, in experiment [2], the inhibition at 0.3 µM was determined as 101%.

The molecule `CCOc1nc2nn(-c3c(F)cc(OC(F)F)cc3Br)cc2c(=O)[nH]1` [Example 119, 2-[2-bromo-4-(difluoromethoxy)-6-fluorophenyl]-6-ethoxy-2,5-dihydro-4H-pyrazolo[3,4-d]pyrimidin-4-one] registered an IC50 in experiment [1] greater than 30 µM. Moreover, the inhibition at 0.3 µM in experiment [2] was 101%.

As to `C=Cc1cc(C)c(-n2cc3c(=O)[nH]c(OCC)nc3n2)c(F)c1` [Example 120, 2-(4-ethenyl-2-fluoro-6-methylphenyl)-6-ethoxy-2,5-dihydro-4H-pyrazolo[3,4-d]pyrimidin-4-one], in experiment [1], the IC50 is greater than 30 µM. The inhibition at 0.3 µM in experiment [2] was 101%.

In experiment [1], `CCOc1nc2nn(-c3c(C)cc(OC)cc3F)cc2c(=O)[nH]1` [Example 121, 6-ethoxy-2-(2-fluoro-4-methoxy-6-methylphenyl)-2,5-dihydro-4H-pyrazolo[3,4-d]pyrimidin-4-one] gave an IC50 greater than 30 µM. For the same molecule, the inhibition at 0.3 µM in experiment [2] was found to be 97%.

`CCOc1nc2nn(-c3c(C)cc(CC)cc3F)cc2c(=O)[nH]1` [Example 122, 6-ethoxy-2-(4-ethyl-2-fluoro-6-methylphenyl)-2,5-dihydro-4H-pyrazolo[3,4-d]pyrimidin-4-one] had an IC50 in experiment [1] greater than 30 µM. For the same molecule, the inhibition at 0.3 µM in experiment [2] is 99%.

Regarding `CCOc1nc2nn(-c3c(F)cc(C4CC4)cc3F)c(C)c2c(=O)[nH]1` [Example 123, 2-(4-cyclopropyl-2,6-difluorophenyl)-6-ethoxy-3-methyl-2,5-dihydro-4H-pyrazolo[3,4-d]pyrimidin-4-one], the IC50 in experiment [1] is greater than 30 µM. The inhibition at 0.3 µM in experiment [2] was determined as 95%.

As to `Cc1ccc(-n2nc3nc(-c4ccccn4)[nH]c(=O)c3c2C)c(O)c1` [Example 124, 2-(2-hydroxy-4-methylphenyl)-3-methyl-6-(pyridin-2-yl)-2,5-dihydro-4H-pyrazolo[3,4-d]pyrimidin-4-one], the IC50 in experiment [1] was greater than 30 µM. Besides, the inhibition at 0.3 µM in experiment [2] amounted to 97%.

In experiment [1], `CCOc1nc2nn(-c3c(C)cc(OC(F)(F)F)cc3F)cc2c(=O)[nH]1` [Example 125, 6-ethoxy-2-[2-fluoro-6-methyl-4-(trifluoromethoxy)phenyl]-2,5-dihydro-4H-pyrazolo[3,4-d]pyrimidin-4-one] gave an IC50 greater than 30 µM. The inhibition at 0.3 µM in experiment [2] came to 100%.

In turn, `CCOc1nc2nn(-c3c(C)cc(F)cc3F)cc2c(=O)[nH]1` [Example 126, 2-(2,4-difluoro-6-methylphenyl)-6-ethoxy-2,5-dihydro-4H-pyrazolo[3,4-d]pyrimidin-4-one] returned a concentration for half-maximal inhibition (IC50) in experiment [1] greater than 30 µM. In addition, the inhibition at 0.3 µM in experiment [2] is 51%.

Turning to `CCOc1nc2nn(-c3ccc(C)cc3O)c(C)c2c(=O)[nH]1` [Example 127, 6-ethoxy-2-(2-hydroxy-4-methylphenyl)-3-methyl-2,5-dihydro-4H-pyrazolo[3,4-d]pyrimidin-4-one], the 50% inhibitory concentration (IC50) in experiment [1] was greater than 30 µM. The inhibition at 0.3 µM in experiment [2] was 98%.

Molecule `CCOc1nc2nn(-c3c(F)cc(Br)cc3Br)cc2c(=O)[nH]1` [Example 128, 2-(2,4-dibromo-6-fluorophenyl)-6-ethoxy-2,5-dihydro-4H-pyrazolo[3,4-d]pyrimidin-4-one] showed an IC50 in experiment [1] greater than 30 µM. Besides, the inhibition at 0.3 µM in experiment [2] turned out to be 97%.

In turn, `Cc1cc(C)c(-n2cc3c(=O)[nH]c(OCCCCN(C)C)nc3n2)c(O)c1` [Example 129, 6-[4-(dimethylamino)butoxy]-2-(2-hydroxy-4,6-dimethylphenyl)-2,5-dihydro-4H-pyrazolo[3,4-d]pyrimidin-4-one] displayed an IC50 in experiment [1] greater than 30 µM. In experiment [2], the inhibition at 0.3 µM came out at 98%.

Consider `CCOc1nc2nn(-c3ccc(C4CC4)cn3)cc2c(=O)[nH]1` [Example 130, 2-(5-cyclopropylpyridin-2-yl)-6-ethoxy-2,5-dihydro-4H-pyrazolo[3,4-d]pyrimidin-4-one], for which the IC50 in experiment [1] is greater than 30 µM. The inhibition at 10 µM in experiment [2] is 37%.

Regarding `CCOc1nc2nn(-c3c(C)cc(Br)cc3C)cc2c(=O)[nH]1` [Example 131, 2-(4-bromo-2,6-dimethylphenyl)-6-ethoxy-2,5-dihydro-4H-pyrazolo[3,4-d]pyrimidin-4-one], in experiment [1], the IC50 is greater than 30 µM. In addition, the inhibition at 0.3 µM in experiment [2] worked out at 100%.

On to `CCOc1nc2nn(-c3c(C)cc(C4CC4)cc3C)cc2c(=O)[nH]1` [Example 132, 2-(4-cyclopropyl-2,6-dimethylphenyl)-6-ethoxy-2,5-dihydro-4H-pyrazolo[3,4-d]pyrimidin-4-one], for which the concentration for half-maximal inhibition (IC50) in experiment [1] is greater than 30 µM. For the same molecule, the inhibition at 0.3 µM in experiment [2] stood at 99%.

The molecule `CCOc1nc2nn(-c3c(F)cc(Br)cc3Cl)cc2c(=O)[nH]1` [Example 133, 2-(4-bromo-2-chloro-6-fluorophenyl)-6-ethoxy-2,5-dihydro-4H-pyrazolo[3,4-d]pyrimidin-4-one] yielded an IC50 in experiment [1] greater than 30 µM. In addition, the inhibition at 0.3 µM in experiment [2] was found to be 96%.

In experiment [1], `CCOc1nc2nn(-c3c(F)cc(C)cc3CC(F)(F)F)cc2c(=O)[nH]1` [Example 134, 6-ethoxy-2-[2-fluoro-4-methyl-6-(2,2,2-trifluoroethyl)phenyl]-2,5-dihydro-4H-pyrazolo[3,4-d]pyrimidin-4-one] showed an IC50 greater than 30 µM. Also, in experiment [2], the inhibition at 0.3 µM was 96%.

`CCOc1nc2nn(-c3c(F)cc(C)cc3Cl)cc2c(=O)[nH]1` [Example 135, 2-(2-chloro-6-fluoro-4-methylphenyl)-6-ethoxy-2,5-dihydro-4H-pyrazolo[3,4-d]pyrimidin-4-one] displayed an IC50 in experiment [1] greater than 30 µM. In addition, in experiment [2], the inhibition at 0.3 µM came to 98%.

In experiment [1], `CCOc1nc2nn(-c3c(C)cc(C(F)F)cc3F)cc2c(=O)[nH]1` [Example 136, 2-[4-(difluoromethyl)-2-fluoro-6-methylphenyl]-6-ethoxy-2,5-dihydro-4H-pyrazolo[3,4-d]pyrimidin-4-one] came in with an IC50 greater than 30 µM. In addition, the inhibition at 0.3 µM in experiment [2] amounted to 92%.

`CCOc1nc2nn(-c3c(F)cc(C4CC4)cc3Cl)cc2c(=O)[nH]1` [Example 137, 2-(2-chloro-4-cyclopropyl-6-fluorophenyl)-6-ethoxy-2,5-dihydro-4H-pyrazolo[3,4-d]pyrimidin-4-one] showed an IC50 in experiment [1] greater than 30 µM. Further, in experiment [2], the inhibition at 0.3 µM came to 98%.

In experiment [1], `COc1nc2nn(-c3c(C)cc(Br)cc3C)cc2c(=O)[nH]1` [Example 138, 2-(4-bromo-2,6-dimethylphenyl)-6-methoxy-2,5-dihydro-4H-pyrazolo[3,4-d]pyrimidin-4-one] had an IC50 greater than 30 µM. The inhibition at 0.3 µM in experiment [2] was 93%.

As to `CCOc1nc2nn(-c3c(C)cc(-n4cccn4)cc3C)cc2c(=O)[nH]1` [Example 139, 2-[2,6-dimethyl-4-(1H-pyrazol-1-yl)phenyl]-6-ethoxy-2,5-dihydro-4H-pyrazolo[3,4-d]pyrimidin-4-one], the IC50 in experiment [1] was greater than 30 µM. For the same molecule, in experiment [2], the inhibition at 10 µM stood at 95%.

`CCOc1nc2nn(-c3ccc(C)cc3O)c(CC)c2c(=O)[nH]1` [Example 140, 6-ethoxy-3-ethyl-2-(2-hydroxy-4-methylphenyl)-2,5-dihydro-4H-pyrazolo[3,4-d]pyrimidin-4-one]: the IC50 in experiment [1] is greater than 30 µM. Moreover, the inhibition at 0.3 µM in experiment [2] came to 93%.

In experiment [1], `CCOc1nc2nn(-c3c(C)cc(C4CC4)cc3C)cc2c(=O)n1C` [Example 141, 2-(4-cyclopropyl-2,6-dimethylphenyl)-6-ethoxy-5-methyl-2,5-dihydro-4H-pyrazolo[3,4-d]pyrimidin-4-one] displayed an IC50 greater than 30 µM. Also, the inhibition at 10 µM in experiment [2] is 95%.

`CCOc1nc2nn(-c3c(C)cc(OC(F)F)cc3Br)cc2c(=O)[nH]1` [Example 142, 2-[2-bromo-4-(difluoromethoxy)-6-methylphenyl]-6-ethoxy-2,5-dihydro-4H-pyrazolo[3,4-d]pyrimidin-4-one]: in experiment [1], the IC50 was greater than 30 µM. Besides, the inhibition at 0.3 µM in experiment [2] was 93%.

Regarding `CCOc1nc2nn(-c3c(C)cc(OC)cc3Br)cc2c(=O)[nH]1` [Example 143, 2-(2-bromo-4-methoxy-6-methylphenyl)-6-ethoxy-2,5-dihydro-4H-pyrazolo[3,4-d]pyrimidin-4-one], in experiment [1], the IC50 is greater than 30 µM. Moreover, the inhibition at 0.3 µM in experiment [2] amounted to 93%.

In experiment [1], `CCOc1nc2nn(-c3c(C)cc(Br)cc3-n3cccn3)cc2c(=O)[nH]1` [Example 144, 2-[4-bromo-2-methyl-6-(1H-pyrazol-1-yl)phenyl]-6-ethoxy-2,5-dihydro-4H-pyrazolo[3,4-d]pyrimidin-4-one] returned an IC50 greater than 30 µM. For the same molecule, the inhibition at 0.3 µM in experiment [2] is 96%.

With `CCOc1nc2nn(-c3c(C)cc(OC)cc3C)cc2c(=O)[nH]1` [Example 145, 6-ethoxy-2-(4-methoxy-2,6-dimethylphenyl)-2,5-dihydro-4H-pyrazolo[3,4-d]pyrimidin-4-one], the IC50 in experiment [1] is greater than 30 µM. Further, the inhibition at 0.3 µM in experiment [2] came to 106%.

For `COc1nc2nn(-c3c(C)cc(C4CC4)cc3C)cc2c(=O)[nH]1` [Example 146, 2-(4-cyclopropyl-2,6-dimethylphenyl)-6-methoxy-2,5-dihydro-4H-pyrazolo[3,4-d]pyrimidin-4-one], in experiment [1], the IC50 was greater than 30 µM. The inhibition at 0.3 µM in experiment [2] was determined as 94%.

One may read the IC50 as the midpoint of a concentration-inhibition curve.

(Values after patent US20260297092A1, “PYRAZOLOPYRIMIDINE DERIVATIVES AS INHIBITORS OF NLRP3” (Takeda Pharmaceutical Company Limited, priority 2023, published 2026).)
